Data taken from US20050049206A1, “Compositions of flavonoids and flavonoid-containing extracts and the treatment of diseases” (priority 2003, published 2005).
“Also recorded” adds a separate entry of the source. Where two headings read alike, the source gives them in different places.

Experiments:
[1] = tested on: pulmonary fibrosis in bleomycin-induced rats; assay: Histopathological / morphologic examination of lungs in bleomycin-induced pulmonary fibrosis rats; assay type: in vivo, Sprague-Dawley rats; conditions: for Alveolitis Score 0 (number of rats) / Alveolitis Score I (number of rats) / Alveolitis Score II (number of rats) / Alveolitis Score III (number of rats) / Pulmonary Fibrosis Score 0 (number of rats) / Pulmonary Fibrosis Score I (number of rats) / Pulmonary Fibrosis Score II (number of rats) / Pulmonary Fibrosis Score III (number of rats): BL-instilled rats, day 28, n=10; for pulmonary anti-fibrotic activity: animal experiments (rats)
[2] = tested on: pulmonary fibrosis in bleomycin-induced rats; assay: Assays of bronchoalveolar lavage fluid in bleomycin-induced pulmonary fibrosis rats; assay type: in vivo, Sprague-Dawley rats; conditions: BL-instilled rats, day 28, n=10
Acute toxicity (LD50) = conditions: in vivo
[3] = tested on: CCl4-induced liver cirrhosis in rats; assay: Hepatic cirrhosis in CCl4-induced rats; assay type: in vivo, Sprague-Dawley rats; conditions: for ALT decrease / AST decrease: serum, 450 mg/kg by gavage for 3 weeks after 8 weeks CCl4, P<0.001 (FIG. 10)
From the text: Animals and method of baicalin dosing: Fibrosis was induced by chronic CCl4 administration to rats. Sprague-Dawley rats weighing 200-240 g received three doses a week i.p. of a mixture 1:6 of CCl4-mineral oil for the first week; then the second week the ratio was 1:5, the third week 1:4, and the 4th-8th weeks the ratio was 1:3 [Armendariz Biochim Biophys Acta 1997;1353:241-252, Armendariz Hepatology 1991;14:895-900.]. CCl4 intoxication was stopped and cirrhotic animals were then fed by gavage either with the baicalin (n=10) at the dosage of 450 mg/kg or saline (n=10) as a control for 3 more weeks.
Statistical analysis: Results relative to the number of experiments indicated, are expressed as mean ±SD. Statistical analyses were perfomed using Student's t-test.
Preparation of liver homogenates: Rats were killed at indicated times and liver homogenates were prepared from 150 mg of tissue as described [Gao Hum Gene Ther 1999;10:911-922.] and kept at −70° C. At the same time, serum samples were obtained and kept at −20° C. until used. Total protein levels in serum were determined using Bradford assay of protein quantification [Bradford Anal Biochem 1976;72:248-254.].
Biochemical assays: Blood was drawn from control and experimental cirrhotic animals at the moment of sacrifice and serum transaminases alanine aminotransferase (ALT), aspartate aminotransferase (AST) and alkaline phosphatase (ALP) were determined in an automated Sincron-7 machine.
Hydroxyproline content biochemical determinations: Liver samples were obtained at the moment of sacrifice and 150 mg were subjected to acid hydrolysis to determine the amount of hydroxyproline according to Rojkind and coworkers [Rojkind Anal Biochem 1974; 57:1-7].

[4] = baicalein by gavage once a day (350 or 450 mg/kg/day)
[5] = baicalin 450 mg/kg/day by gavage

Structure (SMILES): O=c1cc(-c2ccccc2)oc2cc(O)c(O)c(O)c12 [Baicalein, 5,6,7-Trihydroxy-2-phenyl-4H-chromen-4-one]
- Alveolitis Score 0 (number of rats) ([1]; baicalein by gavage once a day): 0
- Alveolitis Score I (number of rats) ([1]; baicalein by gavage once a day): 8
- Alveolitis Score II (number of rats) ([1]; baicalein by gavage once a day): 2
- Alveolitis Score III (number of rats) ([1]; baicalein by gavage once a day): 0
- Pulmonary Fibrosis Score 0 (number of rats) ([1]; baicalein by gavage once a day): 0
- Pulmonary Fibrosis Score I (number of rats) ([1]; baicalein by gavage once a day): 7
- Pulmonary Fibrosis Score II (number of rats) ([1]; baicalein by gavage once a day): 3
- Pulmonary Fibrosis Score III (number of rats) ([1]; baicalein by gavage once a day): 0
- pulmonary anti-fibrotic activity [1]: dramatic and novel pulmonary anti-fibrotic activity
- extracellular fibers and mononuclear cell alveolitis of lungs compared with the BL group ([1]; baicalein by gavage, BL-rat model): considerably less extracellular fibers and mononuclear cell alveolitis
- fibrotic score (lung) ([1]; oral baicalein, BL-induced rats): dramatic effect
- LDH [2, 4]: 1389.61 ± 526.34 U/L
- Mononuclear cells [2, 4]: 501.0 ± 310.2 ×10^4/ml
- Protein [2, 4]: 1.95 ± 0.35 g/L
- LD50 (Acute toxicity (LD50)): 11000 mg/kg
- acute toxicity (Acute toxicity (LD50)): about 11 g/kg body weight
- LD50 (Acute toxicity (LD50); read-out: LD50): 14000 mg/kg

Structure (SMILES): O=C(O)[C@H]1O[C@@H](Oc2cc3oc(-c4ccccc4)cc(=O)c3c(O)c2O)[C@H](O)[C@@H](O)[C@@H]1O [Baicalin, (2S,3S,4S,5R,6S)-6-(5,6-dihydroxy-4-oxo-2-phenyl-4H-chromen-7-yloxy)-tetrahydro-3,4,5-trihydroxy-2H-pyran-2-carboxylic acid]
- Alveolitis Score 0 (number of rats) [1, 5]: 0
- Alveolitis Score I (number of rats) [1, 5]: 7
- Alveolitis Score II (number of rats) [1, 5]: 3
- Alveolitis Score III (number of rats) [1, 5]: 0
- Pulmonary Fibrosis Score 0 (number of rats) [1, 5]: 0
- Pulmonary Fibrosis Score I (number of rats) [1, 5]: 6
- Pulmonary Fibrosis Score II (number of rats) [1, 5]: 4
- Pulmonary Fibrosis Score III (number of rats) [1, 5]: 0
- pulmonary anti-fibrotic activity [1]: dramatic and novel pulmonary anti-fibrotic activity
- lung lesions (morphology) compared with the BL group ([1]; baicalin-treated BL-induced rats, day 28, HE staining): of a more mild nature than that of the BL group; also recorded: considerably less extracellular fibers and mononuclear cell alveolitis; also recorded: of a more mild nature than those of the BL group
- fibrotic index (lung) ([1]; oral baicalin, BL-induced rats): dramatic effect
- LDH [2, 5]: 1331.61 ± 516.68 U/L
- Mononuclear cells [2, 5]: 465.0 ± 320.2 ×10^4/ml
- Protein [2, 5]: 1.85 ± 0.52 g/L
- macroscopic view of cirrhotic livers, treated vs non-treated ([3]; 450 mg/kg baicalin, n=10, P<0.001 (FIG. 8)): remarkable differences in the entire granular texture of the liver
- hydroxyproline level of liver (relative collagen content per g of liver) vs non-treated ([3]; baicalin 450 mg/kg by gavage for 3 weeks after 8 weeks CCl4, P<0.05 (FIG. 9)): significantly lower
- liver fibrosis reduction as compared with saline controls ([3]; baicalin 450 mg/kg daily by gavage for 3 weeks after 8 weeks CCl4, n=10): 40%
- fibrotic index (liver) ([3]; oral baicalin 450 mg/kg, CCl4 rats (FIG. 8)): dramatic effect
- ALT decrease [3]: over 2 fold
- AST decrease [3]: over 3 fold
- acute toxicity (Acute toxicity (LD50)): ~14 g/kg body weight
- LD50 (Acute toxicity (LD50); read-out: LD50): 11000 mg/kg

Structure (SMILES): Cc1ccc(=O)n(-c2ccccc2)c1 [Pirfenidone, reference compound]
- ALT decrease [3]: over 2 fold
- AST decrease [3]: over 3 fold
